Assay results reported in a compilation of properties of binary mixtures (doi:10.1016/j.molliq.2014.08.031).

Test: xn = mol fraction of the nth substance listed
Details: 101 kPa

With `CCCC[n+]1ccn(C)c1.CS(=O)(=O)[O-]` + O the electrical conductivity (298.15 K, x1 = 0.004) was 1.17 S/m, the electrical conductivity (298.15 K, x1 = 0.008) was 2.08 S/m and the electrical conductivity (298.15 K, x1 = 0.019) was 3.25 S/m. It also gave a viscosity (298.15 K, x2 = 0.5596) of 50 mPa·s, an electrical conductivity (298.15 K, x2 = 0.785) of 1.15 S/m and a viscosity (298.15 K, x2 = 0.8016) of 13.45 mPa·s. For the same compound, the viscosity (298.15 K, x2 = 0.8521) was 8.87 mPa·s, the electrical conductivity (298.15 K, x2 = 0.861) was 2.33 S/m and the electrical conductivity (298.15 K, x2 = 0.892) was 2.95 S/m. For the same compound, the viscosity (298.15 K, x2 = 0.9004) was 5.45 mPa·s, the viscosity (298.15 K, x2 = 0.9254) was 4.05 mPa·s and the electrical conductivity (298.15 K, x2 = 0.929) was 3.58 S/m. The viscosity (298.15 K, x2 = 0.9503) was 2.73 mPa·s, the electrical conductivity (298.15 K, x2 = 0.968) was 3.96 S/m and the electrical conductivity (299.15 K, x1 = 0.004) was 1.2 S/m. The electrical conductivity (299.15 K, x1 = 0.019) was 3.33 S/m, the electrical conductivity (299.15 K, x2 = 0.704) was 0.601 S/m and the electrical conductivity (299.15 K, x2 = 0.785) was 1.18 S/m. For the same compound, the electrical conductivity (299.15 K, x2 = 0.796) was 1.29 S/m, the electrical conductivity (299.15 K, x2 = 0.861) was 2.39 S/m and the electrical conductivity (299.15 K, x2 = 0.929) was 3.67 S/m. For the same compound, the electrical conductivity (299.15 K, x2 = 0.968) was 4.04 S/m, the electrical conductivity (300.15 K, x1 = 0.008) was 2.17 S/m and the electrical conductivity (300.15 K, x1 = 0.019) was 3.4 S/m. It also gave an electrical conductivity (300.15 K, x2 = 0.704) of 0.634 S/m, an electrical conductivity (300.15 K, x2 = 0.785) of 1.23 S/m and an electrical conductivity (300.15 K, x2 = 0.796) of 1.3 S/m. For the same compound, the electrical conductivity (300.15 K, x2 = 0.861) was 2.5 S/m, the electrical conductivity (300.15 K, x2 = 0.892) was 3.02 S/m and the electrical conductivity (300.15 K, x2 = 0.929) was 3.75 S/m. For the same compound, the electrical conductivity (300.15 K, x2 = 0.951) was 4.23 S/m, the electrical conductivity (300.15 K, x2 = 0.968) was 4.13 S/m and the electrical conductivity (301.15 K, x1 = 0.004) was 1.27 S/m. The electrical conductivity (301.15 K, x1 = 0.008) was 2.23 S/m, the electrical conductivity (301.15 K, x1 = 0.019) was 3.5 S/m and the electrical conductivity (301.15 K, x2 = 0.704) was 0.661 S/m. The electrical conductivity (301.15 K, x2 = 0.785) was 1.28 S/m, the electrical conductivity (301.15 K, x2 = 0.796) was 1.36 S/m and the electrical conductivity (301.15 K, x2 = 0.892) was 3.11 S/m. The electrical conductivity (301.15 K, x2 = 0.929) was 3.87 S/m, the electrical conductivity (301.15 K, x2 = 0.951) was 4.33 S/m and the electrical conductivity (301.15 K, x2 = 0.968) was 4.05 S/m. For the same compound, the electrical conductivity (302.15 K, x1 = 0.004) was 1.29 S/m, the electrical conductivity (302.15 K, x1 = 0.008) was 2.26 S/m and the electrical conductivity (302.15 K, x2 = 0.704) was 0.663 S/m. The electrical conductivity (302.15 K, x2 = 0.796) was 1.41 S/m, the electrical conductivity (302.15 K, x2 = 0.892) was 3.2 S/m and the electrical conductivity (302.15 K, x2 = 0.929) was 3.97 S/m. For the same compound, the electrical conductivity (302.15 K, x2 = 0.951) was 4.43 S/m, the electrical conductivity (302.15 K, x2 = 0.968) was 4.28 S/m and the electrical conductivity (303.15 K, x1 = 0.004) was 1.31 S/m. For the same compound, the electrical conductivity (303.15 K, x1 = 0.008) was 2.31 S/m, the electrical conductivity (303.15 K, x1 = 0.019) was 3.66 S/m and the electrical conductivity (303.15 K, x2 = 0.785) was 1.39 S/m. For the same compound, the electrical conductivity (303.15 K, x2 = 0.796) was 1.47 S/m, the electrical conductivity (303.15 K, x2 = 0.892) was 3.3 S/m and the electrical conductivity (303.15 K, x2 = 0.929) was 4.16 S/m. It also gave an electrical conductivity (303.15 K, x2 = 0.951) of 4.54 S/m, an electrical conductivity (303.15 K, x2 = 0.968) of 4.41 S/m and an electrical conductivity (304.15 K, x1 = 0.004) of 1.34 S/m. It also gave an electrical conductivity (304.15 K, x1 = 0.008) of 2.37 S/m, an electrical conductivity (304.15 K, x1 = 0.019) of 3.73 S/m and an electrical conductivity (304.15 K, x2 = 0.704) of 0.753 S/m. For the same compound, the electrical conductivity (304.15 K, x2 = 0.785) was 1.44 S/m, the electrical conductivity (304.15 K, x2 = 0.861) was 2.79 S/m and the electrical conductivity (304.15 K, x2 = 0.892) was 3.4 S/m. For the same compound, the electrical conductivity (304.15 K, x2 = 0.929) was 4.22 S/m, the electrical conductivity (304.15 K, x2 = 0.951) was 4.61 S/m and the electrical conductivity (304.15 K, x2 = 0.968) was 4.55 S/m. The electrical conductivity (305.15 K, x1 = 0.008) was 2.4 S/m, the electrical conductivity (305.15 K, x1 = 0.019) was 3.77 S/m and the electrical conductivity (305.15 K, x2 = 0.785) was 1.46 S/m. For the same compound, the electrical conductivity (305.15 K, x2 = 0.796) was 1.56 S/m, the electrical conductivity (305.15 K, x2 = 0.892) was 3.51 S/m and the electrical conductivity (305.15 K, x2 = 0.929) was 4.35 S/m. For the same compound, the electrical conductivity (305.15 K, x2 = 0.951) was 4.74 S/m, the electrical conductivity (305.15 K, x2 = 0.968) was 4.51 S/m and the electrical conductivity (306.15 K, x1 = 0.008) was 2.45 S/m. It also gave an electrical conductivity (306.15 K, x1 = 0.019) of 3.85 S/m, an electrical conductivity (306.15 K, x2 = 0.704) of 0.815 S/m and an electrical conductivity (306.15 K, x2 = 0.785) of 1.49 S/m. It also gave an electrical conductivity (306.15 K, x2 = 0.796) of 1.62 S/m, an electrical conductivity (306.15 K, x2 = 0.892) of 3.6 S/m and an electrical conductivity (306.15 K, x2 = 0.929) of 4.49 S/m. The electrical conductivity (306.15 K, x2 = 0.951) was 5.02 S/m, the electrical conductivity (306.15 K, x2 = 0.968) was 4.73 S/m and the electrical conductivity (307.15 K, x1 = 0.004) was 1.42 S/m. The electrical conductivity (307.15 K, x1 = 0.019) was 4.02 S/m, the electrical conductivity (307.15 K, x2 = 0.704) was 0.851 S/m and the electrical conductivity (307.15 K, x2 = 0.796) was 1.64 S/m. It also gave an electrical conductivity (307.15 K, x2 = 0.861) of 3.04 S/m, an electrical conductivity (307.15 K, x2 = 0.892) of 3.74 S/m and an electrical conductivity (307.15 K, x2 = 0.929) of 4.59 S/m. It also gave an electrical conductivity (307.15 K, x2 = 0.951) of 4.98 S/m, an electrical conductivity (307.15 K, x2 = 0.968) of 4.78 S/m and an electrical conductivity (308.15 K, x1 = 0.004) of 1.44 S/m. The electrical conductivity (308.15 K, x1 = 0.008) was 2.62 S/m, the electrical conductivity (308.15 K, x2 = 0.704) was 0.882 S/m and the electrical conductivity (308.15 K, x2 = 0.785) was 1.64 S/m. The electrical conductivity (308.15 K, x2 = 0.796) was 1.69 S/m, the electrical conductivity (308.15 K, x2 = 0.892) was 3.83 S/m and the electrical conductivity (308.15 K, x2 = 0.929) was 4.72 S/m. For the same compound, the electrical conductivity (308.15 K, x2 = 0.951) was 5.05 S/m, the electrical conductivity (309.15 K, x1 = 0.004) was 1.47 S/m and the electrical conductivity (309.15 K, x1 = 0.008) was 2.62 S/m. It also gave an electrical conductivity (309.15 K, x1 = 0.019) of 4.14 S/m, an electrical conductivity (309.15 K, x2 = 0.704) of 0.921 S/m and an electrical conductivity (309.15 K, x2 = 0.861) of 3.17 S/m. It also gave an electrical conductivity (309.15 K, x2 = 0.892) of 3.93 S/m, an electrical conductivity (309.15 K, x2 = 0.929) of 4.79 S/m and an electrical conductivity (309.15 K, x2 = 0.951) of 5.22 S/m. It also gave an electrical conductivity (310.15 K, x1 = 0.004) of 1.5 S/m, an electrical conductivity (310.15 K, x1 = 0.008) of 2.66 S/m and an electrical conductivity (310.15 K, x2 = 0.704) of 0.956 S/m. The electrical conductivity (310.15 K, x2 = 0.785) was 1.74 S/m, the electrical conductivity (310.15 K, x2 = 0.796) was 1.8 S/m and the electrical conductivity (310.15 K, x2 = 0.929) was 4.93 S/m. For the same compound, the electrical conductivity (310.15 K, x2 = 0.951) was 5.35 S/m, the electrical conductivity (311.15 K, x1 = 0.004) was 1.54 S/m and the electrical conductivity (311.15 K, x1 = 0.008) was 2.73 S/m. For the same compound, the electrical conductivity (311.15 K, x1 = 0.019) was 4.21 S/m, the electrical conductivity (311.15 K, x2 = 0.704) was 0.987 S/m and the electrical conductivity (311.15 K, x2 = 0.785) was 1.79 S/m. For the same compound, the electrical conductivity (311.15 K, x2 = 0.796) was 1.86 S/m, the electrical conductivity (311.15 K, x2 = 0.892) was 4.16 S/m and the electrical conductivity (311.15 K, x2 = 0.929) was 5.04 S/m. It also gave an electrical conductivity (311.15 K, x2 = 0.951) of 5.47 S/m, an electrical conductivity (311.15 K, x2 = 0.968) of 5.2 S/m and an electrical conductivity (312.15 K, x1 = 0.004) of 1.57 S/m. For the same compound, the electrical conductivity (312.15 K, x1 = 0.008) was 2.75 S/m, the electrical conductivity (312.15 K, x1 = 0.019) was 4.39 S/m and the electrical conductivity (312.15 K, x2 = 0.704) was 1.06 S/m. The electrical conductivity (312.15 K, x2 = 0.785) was 1.86 S/m, the electrical conductivity (312.15 K, x2 = 0.861) was 3.44 S/m and the electrical conductivity (312.15 K, x2 = 0.892) was 4.28 S/m. For the same compound, the electrical conductivity (312.15 K, x2 = 0.929) was 5.15 S/m, the electrical conductivity (312.15 K, x2 = 0.951) was 5.65 S/m and the electrical conductivity (312.15 K, x2 = 0.968) was 5.28 S/m. It also gave an electrical conductivity (313.15 K, x1 = 0.004) of 1.58 S/m, an electrical conductivity (313.15 K, x1 = 0.008) of 2.8 S/m and an electrical conductivity (313.15 K, x1 = 0.019) of 4.46 S/m.
